Measured values reported in article PMC4275348 (Molecular microbiology, 2014).
Positions count from the first letter of the chain named.

Key:
[1] = molecular target: T1, luxN^S184I/S230P (Vibrio campbellii, UniProt A7MRY4, S184I/S230P); assay: Bioluminescence of V. harveyi XK006 carrying luxN S184I/S230P; type: cell-based, Vibrio harveyi; settings: 10 μM 3O-C10 HSL
T1 sequence (A7MRY4 1-849 S184I/S230P): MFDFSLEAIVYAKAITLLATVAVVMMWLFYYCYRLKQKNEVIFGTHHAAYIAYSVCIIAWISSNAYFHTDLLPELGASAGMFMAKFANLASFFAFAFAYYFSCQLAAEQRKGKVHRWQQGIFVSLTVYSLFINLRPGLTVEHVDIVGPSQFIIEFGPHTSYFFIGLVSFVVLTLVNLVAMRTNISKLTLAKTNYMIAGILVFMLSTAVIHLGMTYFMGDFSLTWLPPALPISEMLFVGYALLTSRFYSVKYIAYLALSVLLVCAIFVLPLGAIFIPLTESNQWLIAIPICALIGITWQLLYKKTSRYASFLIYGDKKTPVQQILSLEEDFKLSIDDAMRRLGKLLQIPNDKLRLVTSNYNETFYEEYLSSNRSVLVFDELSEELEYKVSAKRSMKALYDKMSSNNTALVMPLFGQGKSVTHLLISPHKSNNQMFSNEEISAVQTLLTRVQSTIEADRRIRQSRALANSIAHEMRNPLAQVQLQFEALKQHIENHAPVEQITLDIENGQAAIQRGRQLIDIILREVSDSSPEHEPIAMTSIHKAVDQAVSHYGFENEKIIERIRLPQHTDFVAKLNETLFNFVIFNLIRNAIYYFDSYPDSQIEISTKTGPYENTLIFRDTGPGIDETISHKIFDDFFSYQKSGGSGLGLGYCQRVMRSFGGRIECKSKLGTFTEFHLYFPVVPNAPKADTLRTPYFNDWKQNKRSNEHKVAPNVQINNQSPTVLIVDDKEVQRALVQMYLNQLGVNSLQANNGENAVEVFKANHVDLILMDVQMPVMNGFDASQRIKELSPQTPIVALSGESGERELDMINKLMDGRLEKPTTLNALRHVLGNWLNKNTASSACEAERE

[2] = molecular target: luxN^S230P (Vibrio campbellii, UniProt A7MRY4, S230P); settings: 10 μM 3O-C10 HSL
[3] = molecular target: T2, luxN^T159I/Y193K (Vibrio campbellii, UniProt A7MRY4, N193K/T159I); assay: Bioluminescence of V. harveyi XK006 carrying luxN T159I/Y193K; type: cell-based, Vibrio harveyi; settings: 10 μM 3O-C10 HSL
T2 sequence (A7MRY4 1-849 T159I/N193K): T1 sequence (A7MRY4 1-849 S184I/S230P) with T159I, I184S, N193K, P230S

[4] = tested on: AinR^Q204H; assay: Bioluminescence of V. harveyi XK006 harboring ainR Q204H; type: cell-based, Vibrio fischeri
[5] = molecular target: LuxN^L166A (Vibrio campbellii, UniProt A7MRY4, L166A)
[6] = molecular target: luxN^L166A/H210N (Vibrio campbellii, UniProt A7MRY4, H210N/L166A); settings: AHLs added at 1 μM
[7] = molecular target: LuxN^L166A mutant with Ser209 (Vibrio campbellii, UniProt A7MRY4, I209S/L166A); settings: AHLs added at 1 μM
[8] = molecular target: T3, LuxN (Vibrio campbellii, UniProt A7MRY4); type: cell-based, Vibrio harveyi; settings: 1 μM AHL with 20 nM AI-1; V. harveyi TL25
[9] = tested on: WT AinR; assay: Bioluminescence of V. harveyi XK006 harboring WT V. fischeri ainR; type: cell-based, Vibrio fischeri; settings: AHLs added at 1 μM
[10] = molecular target: WT LuxN (Vibrio campbellii, UniProt A7MRY4); settings: XK006 carrying WT luxN
[11] = molecular target: T4, LuxN^H210Q (Vibrio campbellii, UniProt A7MRY4, H210Q); assay: Bioluminescence of V. harveyi XK006 carrying luxN H210Q; type: cell-based, Vibrio harveyi; settings: 1 μM AHL
T4 sequence (A7MRY4 1-849 H210Q): T1 sequence (A7MRY4 1-849 S184I/S230P) with I184S, H210Q, P230S

[12] = molecular target: T3, LuxN; settings: 1 μM AHL; V. harveyi TL25
[13] = tested on: Kin^off LuxN mutants; assay: Bioluminescence of V. harveyi XK847 harboring Kin^off luxN alleles; type: cell-based, Vibrio harveyi
[14] = molecular target: T5, LuxN^H210T (Vibrio campbellii, UniProt A7MRY4, H210T); assay: Bioluminescence of V. harveyi XK006 carrying luxN H210T; type: cell-based, Vibrio harveyi; settings: 1 μM AHL
T5 sequence (A7MRY4 1-849 H210T): T1 sequence (A7MRY4 1-849 S184I/S230P) with I184S, H210T, P230S

In the case of `CCCCCCCC(=O)CC(=O)N[C@H]1CCOC1=O` [3O-C10 HSL], the “increase in light production” value [1] is reported as 10 fold, the “induction of light production” value [2] is reported as 20 fold and the “increase in light production” value [3] is reported as 20 fold.

`CCCCCC(O)CC(=O)N[C@H]1CCOC1=O` (some centres unmarked) [3OH-C8 HSL] was tested, and the “detection (light production)” value [4] was “lost the ability to detect”, the “detection (light production)” value [5] was “robustly detects” and the light production [6] was “Significantly less light”. The “ligand detection (light production)” value [7] was “restricted to 3OH-C8 HSL”, the “reduction in light production” value [8] was “five-fold” and the light production [9] was “light production was induced”.

`C[C@@H](O)CC(=O)N[C@H]1CCOC1=O` [(S)-3OH-C4 HSL] was tested, and the “response (dose-dependent light production)” value [10] was “did not respond”.

For `CCCC(=O)N[C@H]1CCOC1=O` [C4 HSL], the “induction of light production” value [11] was 30 fold, the “induction of light production” value [12] was “did not induce light production” and the “light production / detection” value [13] was “also detected”. The “induction of light production” value [14] was 100 fold.
